# Data as given in patent publication US6368831B1, “Treatment of hyperproliferative disorders” (Childrens Hospital Los Angeles, priority 1998, dated 2002).
# What was measured:
# [1] = system: SMS-LHN neuroblastoma cell line; experiment: Ceramide assay, SMS-LHN; type: cell-based, human; settings: SMS-LHN (drug sensitive); 10 μM fenretinide; 20% O2
# Description: The ceramide assay is carried out as follows. 500,000 neuroblastoma cells/well are replicate plated in six-well tissue culture plates and allowed to attach overnight. Tritiated (3H)-palmitic acid (a lipid precursor) is added to 1 microcure/cc and fenretinide added to a final concentration of 10 uM. Control cells receive tritiated label but no drug. At the indicated time, cells are harvested from triplicate wells, washed, and lipids extracted with methanol, acetic acid, water, and chloroform. The organic layer (containing the tritium label incorporated into lipids) is isolated and dried down by a nitrogen stream. The lipid sample is dissolved in chloroform: methanol and 10% of each sample assayed to estimate the total tritium in the lipid sample. The lipids in sample fractions, together with unlabeled ceramide standards, are then separated by thin layer chromatography and the plates developed by iodine vapor. The region of the plate corresponding to the ceramide standard is scraped and the tritium of the co-migrating sample ceramide is measured. Total sample ceramide is then expressed as percent tritium label in ceramide versus tritium in total lipid. […]
# [2] = system: CHLA-90 cells; experiment: Morphological assessment of apoptosis and necrosis (Hoechst 33342 / propidium iodide), CHLA-90; type: cell-based, human
# Description: Methods. To determine the manner in which 4-HPR or HPR+safingol induced cell death in neuroblastoma cells, morphological evidence of apoptosis and/or necrosis was assessed in CHLA-90 cells in the presence or absence of a specific as inhibitor of apoptosis, the neural cell-penetrant, pan-caspase enzyme inhibitor, BOC-d-fink (Enzyme Systems Products, Livermore, Calif.). […] CHLA-90 cells were plated in duplicate in whole medium in Lab Tek chamber slides (Nunc, Naperville, Ill.), allowed to attach for 24 hours, and then treated in the presence or absence of BOC-d-fink (40 μM) for one hour prior to treatment with HPR (10 μM). Control cells were treated with vehicle solvents of 0. 1% ethanol (4-HPR) and/or 0.2% DMSO (BOC-d-fink). Morphological features of apoptosis (DNA condensation and/or apoptotic bodies) were visualized in undetached cells at +24 or +48 hours using blue nuclear fluorescence induced by the supravital DNA stain Hoechst 33342 (10 μg/ml for 30 mins at 37° C.), while necrotic cells and advanced apoptotic cells were recognized by red fluorescent staining with propidium iodide (0.5 μM/ml). Red fluorescently-staining cells with condensed nuclear remnants were scored as apoptotic cells. […] Mutiple random fields of cells (of ˜100-500 cells each) were counted and photographed for viable cells, apoptotic cells, and necrotic cells. […]
compound,measurement,setting,value
"CC1=C(/C=C/C(C)=C/C=C/C(C)=C/C(=O)Nc2ccc(O)cc2)C(C)(C)CCC1 [HPR, all-trans-N-(4-hydroxyphenyl)retinamide]",ceramide generation,[1],generate ceramide
same,morphological nuclear changes indicative of apoptosis,"[2]; HPR 10 μM alone, relative to controls (P=0.006)",induced significant apoptosis
same,morphological evidence of necrosis,"[2]; HPR 10 μM, relative to controls (P=0.002)",significant morphological evidence of necrosis
